Test results as given in patent publication US4234691A (Yamasa Shoyu Kabushiki Kaisha, priority 1978, dated 1980).
Like-named read-outs stand apart in the source and are kept apart here.

Key:
L-lysine α-oxidase [1] = molecular target: T1, L-lysine α-oxidase (Trichoderma viride, UniProt A0A0G4DCU0); experiment: Substrate specificity, relative enzyme activity by oxygen-electrode method; assay type: biochemical; conditions: purified enzyme; for Relative activity (%): substrate 10 mM, L-Lysine = 100
T1 construct: mature processed form
T1 sequence (A0A0G4DCU0 77-617): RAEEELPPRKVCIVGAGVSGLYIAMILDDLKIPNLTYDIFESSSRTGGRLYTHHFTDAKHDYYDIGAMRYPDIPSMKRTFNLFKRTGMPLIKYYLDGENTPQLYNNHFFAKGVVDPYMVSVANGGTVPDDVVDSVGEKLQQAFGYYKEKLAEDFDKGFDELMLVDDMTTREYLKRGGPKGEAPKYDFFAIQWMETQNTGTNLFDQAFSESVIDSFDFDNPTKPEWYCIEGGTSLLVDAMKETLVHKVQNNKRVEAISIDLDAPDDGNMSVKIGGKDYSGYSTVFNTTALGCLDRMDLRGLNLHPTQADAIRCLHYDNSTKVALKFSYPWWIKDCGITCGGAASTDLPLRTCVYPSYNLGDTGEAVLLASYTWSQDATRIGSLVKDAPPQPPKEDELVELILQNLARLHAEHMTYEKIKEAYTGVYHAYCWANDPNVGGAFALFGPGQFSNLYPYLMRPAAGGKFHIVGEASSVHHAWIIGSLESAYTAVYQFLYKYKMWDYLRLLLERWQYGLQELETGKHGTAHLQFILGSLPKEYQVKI
Procedure: A variety of substrates listed in the following table were subjected to the action of the purified enzyme of the present invention, and the relative enzyme activities thereof were determined according to the oxygen-electrode method.
The activity of the present enzyme was measured in accordance with Soda's method (Analytical Biochemistry Vol. 25, p. 228, 1968) in the following manner. A reaction mixture consisting of 0.7 ml of 0.1 M potassium phosphate buffer (pH 8.0), 0.1 ml of catalase (750 U/ml), 0.1 ml of 0.1 M L-lysine solution and 0.1 ml of the present enzyme solution was incubated at 37° C. for 20 minutes with gentle shaking. After the incubation the reaction was terminated by the addition of 0.1 ml of 25% trichloroacetic acid. To the resulting reaction mixture were added 1.9 ml of 1 M acetate buffer (pH 5.0) and 0.8 ml of 0.1% 3-methyl-2-benzothiazolone hydrazone hydrochloride solution. The mixture was further incubated at 30° C. for 30 minutes and then allowed to cool to room temperature, after which measurement of optical density at 318 nm was carried out. The formed α-keto-ε -aminocaproic acid thus formed was determined from the resulting calibration curve. One unit of the enzyme was defined as the quantity of the enzyme catalyzing the formation of 1 μmol of α-keto-ε-aminocaproic acid at 37° C. per minute. The relative activity of the enzyme was also assayed by manometric and polarographic determination of the oxygen consumption.

L-lysine α-oxidase [2] = molecular target: T1, L-lysine α-oxidase; experiment: Enzyme activity in the presence of metallic ions and additives (inhibition, activation, stabilization); assay type: biochemical; conditions: for Relative activity (%) in presence of metallic ions: metallic ions 1mM; for Effect on enzyme activity (in words): enzyme activity measured in presence of the additive
Procedure: The enzyme activity was measured in the presence of various metallic ions and various additives. The activator has not been found. The enzyme was stabilized by sodium chloride, potassium chloride, phosphates and the like.

[3] = tested on: L5178 Y mouse leukemic cells; conditions: L5178Y cells, 10^5 cells/ml, 37° C., 48 hours
Procedure: In this experiment, the antitumor activity in vitro was determined by measuring the proliferation-inhibition activity against the cultured L5178 Y mouse leukemic cells. More specifically, 0.1 ml of the sample diluted with a phosphate-buffered saline (PBS) was added to 0.9 ml of the cultured L5178Y cell suspension (10^5 cells/ml) with the logarithmic growth phase. The mixture was incubated, at 37° C. for 48 hours in a carbon dioxide incubator, and then the number of the cells was measured by means of a microcell counter.

[4] = substrate: N[C@@H](Cc1ccccc1)C(=O)O; experiment: Km values of the enzyme for amino acids; assay type: biochemical, Trichoderma viride; conditions: other: purified enzyme of Example 1
[5] = substrate: NCCCC[C@H](N)C(=O)O; experiment: Km values of the enzyme for amino acids; assay type: biochemical, Trichoderma viride; conditions: other: purified enzyme of Example 1
[6] = substrate: NCCC[C@H](N)C(=O)O; experiment: purified protein, by the assay type; conditions: other: purified enzyme of Example 1
[7] = inhibitor concentration not given

NCCCCCC(N)C(=O)O (racemic) [D,L-Homolysine]
Relative activity (%) (L-lysine α-oxidase [1]): 31.1%

NCCC(N)C(=O)O (centres unmarked) [2,4-Diaminobutyric acid]
Relative activity (%) (L-lysine α-oxidase [1]): < 0.5%

[Ba+2] [Ba]
Relative activity (%) in presence of metallic ions (L-lysine α-oxidase [2]): 100.0%

[Ca+2] [Ca]
Relative activity (%) in presence of metallic ions (L-lysine α-oxidase [2]): 102.5%

NCCCCCN [Cadaverine]
Relative activity (%) (L-lysine α-oxidase [1]): < 0.5%

[Co+2] [Co]
Relative activity (%) in presence of metallic ions (L-lysine α-oxidase [2]): 91.6%

[Cu+2] [Cu]
Effect on enzyme activity (in words) (L-lysine α-oxidase [2]): inhibited
Relative activity (%) in presence of metallic ions (L-lysine α-oxidase [2]): 78.5%

N[C@@H](CS)C(=O)O [Cysteine]
Relative activity (%) in presence of inhibitors (L-lysine α-oxidase [2]; [7]): 100.3%

NCCCC[C@@H](N)C(=O)O [D-Lysine]
Relative activity (%) (L-lysine α-oxidase [1]): < 0.5%

O=C(O)CN(CCN(CC(=O)O)CC(=O)O)CC(=O)O [EDTA, Ethylenediaminetetraacetic acid]
Relative activity (%) in presence of inhibitors (L-lysine α-oxidase [2]): 93.8%

N[C@@H](CCC(=O)N[C@@H](CS)C(=O)NCC(=O)O)C(=O)O [Glutathione]
Relative activity (%) in presence of inhibitors (L-lysine α-oxidase [2]): 103.5%

NC(=O)NCCCC[C@H](N)C(=O)O [Homocitrulline]
Relative activity (%) (L-lysine α-oxidase [1]): < 0.5%

[K+] [K]
Relative activity (%) in presence of metallic ions (L-lysine α-oxidase [2]): 100.0%

C[C@H](N)C(=O)O [L-Alanine]
Relative activity (%) (L-lysine α-oxidase [1]): < 0.5%

N=C(N)NCCC[C@H](N)C(=O)O [L-Arginine]
Activity of the enzyme to the amino acid (in words) (L-lysine α-oxidase [1]): some activities
Relative activity (%) (L-lysine α-oxidase [1]): 6.1%

NC(=O)C[C@H](N)C(=O)O [L-Asparagine]
Relative activity (%) (L-lysine α-oxidase [1]): < 0.5%

N[C@@H](CC(=O)O)C(=O)O [L-Aspartic acid]
Relative activity (%) (L-lysine α-oxidase [1]): < 0.5%

NC(=O)NCCC[C@H](N)C(=O)O [L-Citrulline]
Relative activity (%) (L-lysine α-oxidase [1]): < 0.5%

N[C@@H](CS)C(=O)O [L-Cysteine]
Relative activity (%) (L-lysine α-oxidase [1]): < 0.5%

N[C@@H](CCC(=O)O)C(=O)O [L-Glutamic acid]
Relative activity (%) (L-lysine α-oxidase [1]): < 0.5%

NC(=O)CC[C@H](N)C(=O)O [L-Glutamine]
Relative activity (%) (L-lysine α-oxidase [1]): < 0.5%

NCC(=O)O [L-Glycine]
Relative activity (%) (L-lysine α-oxidase [1]): < 0.5%

N[C@@H](Cc1c[nH]cn1)C(=O)O [L-Histidine]
Activity of the enzyme to the amino acid (in words) (L-lysine α-oxidase [1]): some activities
Relative activity (%) (L-lysine α-oxidase [1]): 3.8%

O=C(O)[C@@H]1C[C@@H](O)CN1 [L-Hydroxyproline]
Relative activity (%) (L-lysine α-oxidase [1]): < 0.5%

CC[C@H](C)[C@H](N)C(=O)O [L-Isoleucine]
Relative activity (%) (L-lysine α-oxidase [1]): < 0.5%

CC(C)C[C@H](N)C(=O)O [L-Leucine]
Relative activity (%) (L-lysine α-oxidase [1]): < 0.5%

CCOC(=O)[C@@H](N)CCCCN [L-Lysine ethyl ester]
Relative activity (%) (L-lysine α-oxidase [1]): 83.3%

NCCCC[C@H](N)C(=O)NO [L-Lysine hydroxamate]
Relative activity (%) (L-lysine α-oxidase [1]): 62.1%

NCCCC[C@H](N)C(=O)O [L-Lysine]
Relative activity (%) (L-lysine α-oxidase [1]): 100.0%

CSCC[C@H](N)C(=O)O [L-Methionine]
Relative activity (%) (L-lysine α-oxidase [1]): < 0.5%

NCCC[C@H](N)C(=O)O [L-Ornithine]
Activity of the enzyme to the amino acid (in words) (L-lysine α-oxidase [1]): some activities
Relative activity (%) (L-lysine α-oxidase [1]): 18.2%

N[C@@H](Cc1ccccc1)C(=O)O [L-Phenylalanine]
Activity of the enzyme to the amino acid (in words) (L-lysine α-oxidase [1]): some activities
Relative activity (%) (L-lysine α-oxidase [1]): 8.3%

O=C(O)[C@@H]1CCCN1 [L-Proline]
Relative activity (%) (L-lysine α-oxidase [1]): < 0.5%

N[C@@H](CO)C(=O)O [L-Serine]
Relative activity (%) (L-lysine α-oxidase [1]): < 0.5%

C[C@@H](O)[C@H](N)C(=O)O [L-Threonine]
Relative activity (%) (L-lysine α-oxidase [1]): < 0.5%

N[C@@H](Cc1c[nH]c2ccccc12)C(=O)O [L-Tryptophan]
Relative activity (%) (L-lysine α-oxidase [1]): < 0.5%

CC(C)[C@H](N)C(=O)O [L-Valine]
Relative activity (%) (L-lysine α-oxidase [1]): < 0.5%

[Li+] [Li]
Relative activity (%) in presence of metallic ions (L-lysine α-oxidase [2]): 98.4%

[Cl][Hg][Cl] [Mercuric chloride]
Effect on enzyme activity (in words) (L-lysine α-oxidase [2]): inhibited
Relative activity (%) in presence of inhibitors (L-lysine α-oxidase [2]; [7]): 19.2%

[Mg+2] [Mg]
Relative activity (%) in presence of metallic ions (L-lysine α-oxidase [2]): 99.6%

[Mn+2] [Mn]
Relative activity (%) in presence of metallic ions (L-lysine α-oxidase [2]): 97.1%

CCN1C(=O)C=CC1=O [N-Ethylmaleimide]
Relative activity (%) in presence of inhibitors (L-lysine α-oxidase [2]; [7]): 108.7%

O=C(O)c1cc[c]([Hg][Cl])cc1 [PCMB, para-Chloromercuribenzoic acid]
Effect on enzyme activity (in words) (L-lysine α-oxidase [2]): inhibited
Relative activity (%) in presence of inhibitors (L-lysine α-oxidase [2]; [7]): 42.9%

NCCCCN [Putrescine]
Relative activity (%) (L-lysine α-oxidase [1]): < 0.5%

N[C@@H](CSCCc1ccncc1)C(=O)O [S-(β-4-Pyridylethyl)-L-cysteine]
Relative activity (%) (L-lysine α-oxidase [1]): 2.7%

NCCSC[C@H](N)C(=O)O [S-(β-Aminoethyl)-L-cysteine]
Relative activity (%) (L-lysine α-oxidase [1]): 9.8%

CC(N)CSC[C@H](N)C(=O)O (stereo partly drawn) [S-(β-Aminopropyl-L-cysteine]
Relative activity (%) (L-lysine α-oxidase [1]): 34.8%

O=S(=O)(O)c1cc(O)c(O)c(S(=O)(=O)O)c1 [Tiron]
Relative activity (%) in presence of inhibitors (L-lysine α-oxidase [2]; [7]): 96.5%

[Zn+2] [Zn]
Relative activity (%) in presence of metallic ions (L-lysine α-oxidase [2]): 92.7%

[Cl-].[K+] [potassium chloride]
Stabilization of the enzyme (in words) (L-lysine α-oxidase [2]): stabilized

[Cl-].[Na+] [sodium chloride]
Stabilization of the enzyme (in words) (L-lysine α-oxidase [2]): stabilized

NCC(N)C(=O)O (stereo not drawn) [α,β-Diaminopropionic acid]
Relative activity (%) (L-lysine α-oxidase [1]): < 0.5%

NCCCCC(=O)O [δ-Aminovareric acid]
Relative activity (%) (L-lysine α-oxidase [1]): < 0.5%

NCC(O)CC[C@H](N)C(=O)O (some centres unmarked) [δ-Hydroxy-lysine]
Relative activity (%) (L-lysine α-oxidase [1]): 37.1%

NCCCCCC(=O)O [ε-Aminocaproic acid]
Relative activity (%) (L-lysine α-oxidase [1]): < 0.5%

CC(=O)NCCCC[C@H](N)C(=O)O [ε-N-Acetyl-L-lysine]
Relative activity (%) (L-lysine α-oxidase [1]): < 0.5%

L-lysine α-oxidase
Concentration giving complete inhibition of proliferation [3]: 3.3 mU/ml

phosphates
Stabilization of the enzyme (in words) (L-lysine α-oxidase [2]): stabilized

B1: L-lysine α-oxidase (Trichoderma viride) (protein)
chain: RAEEELPPRKVCIVGAGVSGLYIAMILDDLKIPNLTYDIFESSSRTGGRLYTHHFTDAKHDYYDIGAMRYPDIPSMKRTFNLFKRTGMPLIKYYLDGENTPQLYNNHFFAKGVVDPYMVSVANGGTVPDDVVDSVGEKLQQAFGYYKEKLAEDFDKGFDELMLVDDMTTREYLKRGGPKGEAPKYDFFAIQWMETQNTGTNLFDQAFSESVIDSFDFDNPTKPEWYCIEGGTSLLVDAMKETLVHKVQNNKRVEAISIDLDAPDDGNMSVKIGGKDYSGYSTVFNTTALGCLDRMDLRGLNLHPTQADAIRCLHYDNSTKVALKFSYPWWIKDCGITCGGAASTDLPLRTCVYPSYNLGDTGEAVLLASYTWSQDATRIGSLVKDAPPQPPKEDELVELILQNLARLHAEHMTYEKIKEAYTGVYHAYCWANDPNVGGAFALFGPGQFSNLYPYLMRPAAGGKFHIVGEASSVHHAWIIGSLESAYTAVYQFLYKYKMWDYLRLLLERWQYGLQELETGKHGTAHLQFILGSLPKEYQVKI
notes: mature processed form
Km [4]: 14000 µM
Km [5]: 40 µM
Km [6]: 440 µM
